# Key:
# [1] = tested on: immature embryos of wheat cv Bobwhite; assay: Wheat Agrobacterium transformation; type: cell-based, Triticum aestivum L; settings: for Efficiency (%) / Responding calli (%): selection and first regeneration media
# Protocol: This example describes the use of lipoic acid in an Agrobacterium-based wheat transformation process. Immature embryos of wheat (Triticum aestivum L) cv Bobwhite were isolated from the immature caryopsis (wheat spikelets) 13-15 days after pollination, and cultured on M7 media (M7 medium is based on CM4C medium [Table 8], but the amount of MS salts was doubled and the picloram concentration was increased from 2.4 mg/L to 4 mg/L) containing 0.02 mM glyphosate for 3-4 days in the dark at 25° C. The embryos without embryogenic callus were selected for Agrobacterium inoculation. After preculture, 100 embryos were inoculated in 5 mL 1/10 CM4C medium with 5 mL Agrobacterium (OD660=1), 10 μL Pluronic F68 was added, and the mixture was incubated for 15 minutes in the dark at room temperature. Embryos were placed on sterilized filter paper with 200 μL deionized water and cocultured in the dark for 3 days at 23° C. Embryos were then transferred to delay media for 7 days in the dark at 25° C. Delay medium consists of CM4C, 500 mg/L carbenicillin, and 0.02 mM glyphosate. Selection was then performed on CM4C with 2 mM glyphosate, 500 mg/L carbenicillin and aromatic amino acids (10^−7/amino acid) for 7 days. Regeneration was started on MMSO.2C with 0.1 mM glyphosate, 250 mg/L carbenicillin, and aromatic amino acids ([…]) for 2 weeks in the light at 25° C. Regeneration was continued in MMSO.2C with 0.02 mM glyphosate, 500 mg/L carbenicillin, aromatic amino acids (10^−7/amino acid), and 2 μM copper sulfate for 2-8 weeks (with a transfer every 2 weeks) in the light at 25° C. Finally, plantlets were transferred to sundae cups with MMSO media with 0.02 mM glyphosate, and 500 mg/L carbenicillin.
# [2] = tested on: potato stem explants, cultivar Ranger Russet; assay: Potato Agrobacterium transformation with glyphosate selection; type: cell-based; settings: for #rooted / shoots: 400 explants; for % TE (transformation efficiency) / % escape: potato
# Protocol: This Example describes the use of lipoic acid in an Agrobacterium-based potato transformation protocol. Five days prior to inoculation, Agrobacterium containing the transformation vector of interest were streaked on a fresh LBssck plate (see media descriptions in Example 1) from the frozen glycerol stock, grown at about 28° C. for 3-4 days and stored in the refrigerator. About 20-22 hours before inoculation, 50 mL of liquid LBssck media (see media descriptions in Example 1) were dispensed into a 250-mL sterile flask. Using a sterile bacteriological loop, one loopful of bacteria from the LBssck plate was inoculated and agitated in the liquid LBssck. The 250-mL flasks were shaken at 25° C. overnight at medium to high speed. On inoculation day, 45 mL of MSO (4.4 g/L MS salts, 2 mL/L, Gamborg's B5 salts, 30 g/L sucrose) were dispensed into a 250 mL sterile flask. Using a sterile 5 mL pipette, 5 mL of the suspension was removed and dispensed into the flask containing the 45 mL of MSO and then agitated. The desired O.D. used for Agrobacterium transformation in potato was O.D.660=0.1.
# The stock plant material to be used was collected from the growth chamber (16-hour light, 20° C.). The meristem was excised from the stock plants, and the cut end was placed in fresh PM (see media descriptions below) media, with ten meristems per plantcon. The leaves were removed from the potato stems by either cutting with a scalpel or pinching them off with forceps. After removing all the leaves in the plantcon, the stems were excised near the base and placed in an empty, sterile plantcon containing MSO. During this process, the plantcon(s) containing stems were kept closed except when adding more stems.
# On the day of the inoculation, the stems were cut into 7 mm sections using a sterile scalpel and forceps. A 1/10 Agrobacterium solution was prepared by pipetting 4 mL of the Agrobacterium culture into 36 mL of MSO. The 1/10 agro solution was poured into the respective plates and swirled gently. A small amount of MSO was dispensed into the regeneration tissue and swirled. It was incubated for 15 min.
# After 15 minutes, the Agrobacterium solution was removed with a vacuum aspirator. Using a sterile scoopula, the explants were scooped and spread onto the coculture plates with a piece of sterile 8.5 cm Whatman filter paper placed in the middle, about 100 explants per plate. The plates were placed in a bag and stored in a warm room ( 16/8 hour light, 19° C.) for two days.
# After the two-day co-culture period, explants were placed on the appropriate selection media corresponding to the selectable marker provided in the transformation vector.
# The explants were placed on the Z1 nonselection media at 20 explants per plate. The plates were placed in a bag and stored in a warm room (16-hour light, 19° C.). The glyphosate constructs were transferred to selection medium in 3 days.
# In three days, the explants were transferred to Z1 glyphosate selection media at 20 explants per plate. The plates are bagged and placed in the warm room for one week.
# After one week, the explants that were on Z1 glyphosate media were transferred to Z2 glyphosate media at 20 explants per plate. The plates were bagged and placed back in the warm room for 4 weeks. They remained on-this selection media for four weeks.
# After two weeks, the experiment was checked for any shoots at this point. Shoots that were originating directly from the callusing end of the explant were excised. The shoots were placed on rooting media containing either kanamycin or glyphosate depending upon the selection used in the experiment and placed in the growth chamber. These were checked for rooting in two weeks. Any that were rooting were cut into tubes. This process was repeated after 2 more weeks. Any non-rooting plants were discarded after 4 weeks.
# The lipoic acid study was conducted using the glyphosate transformation protocol as outlined above. […]
# [3] = Delay-selection-first regeneration 25-25-50 (μM), 599 explants
# [4] = Delay-selection-first regeneration 25-50-50 (μM), 560 explants
# [5] = Delay-selection-first regeneration 50-50-50 (μM), 570 explants
# [6] = 8 μM lipoic acid, listed as Lipoic acid
# [7] = 9 μM lipoic acid, listed as Lipoic acid
compound,measurement,setting,value
"O=C(O)CCCCC1CCSS1 (centres unmarked) [lipoic acid, 1,2-dithiolane-3-pentanoic acid]",Efficiency (%),"[1]; 5 μM in delay, 472 explants",3.8%
same,Responding calli (%),"[1]; 5 μM in delay, 472 explants",33.1%
same,Efficiency (%),"[1]; 10 μM in delay, 486 explants",3.2%
same,Responding calli (%),"[1]; 10 μM in delay, 486 explants",38.8%
same,Efficiency (%),"[1]; 30 μM in delay, 486 explants",3.0%
same,Responding calli (%),"[1]; 30 μM in delay, 486 explants",38.6%
same,Efficiency (%),"[1]; 50 μM in delay, 482 explants",5.1%
same,Responding calli (%),"[1]; 50 μM in delay, 482 explants",47.9%
same,Efficiency (%),"[1]; 100 μM in delay, 464 explants",2.2%
same,Responding calli (%),"[1]; 100 μM in delay, 464 explants",28.4%
same,% efficiency,[1]; [3],3.0%
same,% responding calli,[1]; [3],41.7%
same,% efficiency,[1]; [4],5.4%
same,% responding calli,[1]; [4],50.5%
same,% efficiency,[1]; [5],4.9%
same,% responding calli,[1]; [5],49.6%
same,#rooted,[2]; 6 μM lipoic acid,18
same,shoots,[2]; 6 μM lipoic acid,27
same,% TE (transformation efficiency),[2]; 6 μM lipoic acid,4.5%
same,% escape,[2]; 6 μM lipoic acid,33.0%
same,#rooted,[2]; 7 μM lipoic acid,16
same,shoots,[2]; 7 μM lipoic acid,25
same,% TE (transformation efficiency),[2]; 7 μM lipoic acid,4.0%
same,% escape,[2]; 7 μM lipoic acid,36.0%
same,#rooted,[2]; 8 μM lipoic acid,75
same,shoots,[2]; 8 μM lipoic acid,89
same,% TE (transformation efficiency),[2]; 8 μM lipoic acid,19.0%
same,% escape,[2]; 8 μM lipoic acid,16.0%
same,% TE (transformation efficiency),[2]; [6],19%
same,% escape,[2]; [6],16%
same,#rooted,[2]; 9 μM lipoic acid,70
same,shoots,[2]; 9 μM lipoic acid,89
same,% TE (transformation efficiency),[2]; 9 μM lipoic acid,18.0%
same,% escape,[2]; 9 μM lipoic acid,21.0%
same,% TE (transformation efficiency),[2]; [7],18%
same,% escape,[2]; [7],21%
same,increase in transformation efficiency,[2]; lipoic acid at 8 μM and 9 μM vs control,sixfold increase
same,effect on transformation efficiency and escapes,[2]; lipoic acid at 6 and 7 μM,little effect

# — patent publication US20040133938A1, “Use of lipoic acid in plant culture media” (priority 2002, published 2004)
